Assay [1] concerns AR42J cells. The experiment in a line: 125I-GLP-1 binding to AR42J cells. Set-up: species or system rat; dose or concentration left out as unconfirmed. To be noted: displacement by cold GLP-1, n=9. The method, then:
GLP-1 binding. AR42J cells were plated and cultured as described above. At the start of the binding experiment the cells were incubated with serum-free DMEM for 2 h at 37° C. Cells were then washed twice with 0.5 ml binding buffer containing (in mM) 120 NaCl, 1.2 MgSO4, 13 sodium acetate, 5 KCl, 10 Tris, pH 7.6. […] We only used freshly prepared ^125I-GLP-1 within two weeks of the reference date. At the end of the incubation, the supernatant was discarded and the cells were washed three times with ice-cold PBS. Cells were lysed with 0.5 ml 0.5 N NaOH/0.1% SDS for 30 min at room temperature. The radioactivity was measured in the lysates in an ICN Apec series gamma counter. […] This method has been used previously to characterize GLP-1 binding in CHO cells overexpressing GLP-1 receptor and in 3T3-L1 adipocytes (Montrose-Rafizadeh et al., J. Biol. Chem., 1997; Montrose-Rafizadeh et al., J Cell Physiol., 1997).

For assay [2], the system named is AR42J cells. The following applies: Mashima et al., 1996; cited from earlier work.

As to “^125I-GLP-1: radiolabelled GLP-1 (2,000 Ci/mmol, Peninsula)”, in assay [1], the “specific 125I-GLP-1 binding, % of total binding” value came out at 27±3.2% and the “specific 125I-GLP-1 binding, % of total radioactivity added” value is 0.64±0.16%.

Consider HGF: hepatocyte growth factor, for which the “AR42J cells converted into insulin-producing / insulin positive cells” value in assay [2] was “about 3%”.

These data come from US7056734B1, “Differentiation of non-insulin producing cells into insulin producing cells by GLP-1 or exendin-4 and uses thereof” (The United States of America as represented by the …, priority 1998, dated 2006).
